Tested on: p53 signaling pathway in MT373 tumors
Assay: MT373 syngeneic sarcoma model: mouse p53 signaling pathway profiling panel
Assay type: in vivo

## CCn1c(C#CCNc2ccccc2)cc2cc(CNC3CCN(C)CC3)ccc21 [Compound 1, 1-Anilino-3-{1-ethyl-5-[(1-methyl-4-piperidylamino)methyl]-1H-indol-2-yl}-2-propyne]
75 mg/kg BIDx1, 48 h
  Dnmt1 fold increase or percent reduction vs vehicle control: 1.11 fold or %
  E2f1 fold increase or percent reduction vs vehicle control: 1.24 fold or %
  E2f3 fold increase or percent reduction vs vehicle control: 30.44 fold or %
  Egfr fold increase or percent reduction vs vehicle control: 34.80 fold or %
  Egr1 fold increase or percent reduction vs vehicle control: 39.68 fold or %
  Ep300 fold increase or percent reduction vs vehicle control: 1.01 fold or %
  Ercc1 fold increase or percent reduction vs vehicle control: 43.22 fold or %
  Esr1 fold increase or percent reduction vs vehicle control: 1.78 fold or %
  Fadd fold increase or percent reduction vs vehicle control: 1.13 fold or %
  Fas fold increase or percent reduction vs vehicle control: 10.67 fold or %
  Fasl fold increase or percent reduction vs vehicle control: 1.48 fold or %
  Foxo3 fold increase or percent reduction vs vehicle control: 3.18 fold or %
  Gadd45a fold increase or percent reduction vs vehicle control: 49.07 fold or %
  Hif1a fold increase or percent reduction vs vehicle control: 1.22 fold or %
  Il6 fold increase or percent reduction vs vehicle control: 80.18 fold or %
  Jun fold increase or percent reduction vs vehicle control: 29.72 fold or %
  Kras fold increase or percent reduction vs vehicle control: 1.01 fold or %
  Lig4 fold increase or percent reduction vs vehicle control: 1.05 fold or %
  Mdm2 fold increase or percent reduction vs vehicle control: 12.55 fold or %
  Mdm4 fold increase or percent reduction vs vehicle control: 19.35 fold or %
  Mel1 fold increase or percent reduction vs vehicle control: 31.09 fold or %
  Mlh1 fold increase or percent reduction vs vehicle control: 7.78 fold or %
  Msh2 fold increase or percent reduction vs vehicle control: 11.63 fold or %
  Myod1 fold increase or percent reduction vs vehicle control: 4.06 fold or %
  Nf1 fold increase or percent reduction vs vehicle control: 29.60 fold or %
  Nfkb1 fold increase or percent reduction vs vehicle control: 7.16 fold or %
  Pcna fold increase or percent reduction vs vehicle control: 38.45 fold or %
  Pmaip1 fold increase or percent reduction vs vehicle control: 1.15 fold or %
  Ppm1d fold increase or percent reduction vs vehicle control: 4.68 fold or %
  Prc1 fold increase or percent reduction vs vehicle control: 16.43 fold or %
  Prkca fold increase or percent reduction vs vehicle control: 13.73 fold or %
  Pten fold increase or percent reduction vs vehicle control: 1.01 fold or %
  Pttg1 fold increase or percent reduction vs vehicle control: 1.08 fold or %
  Rb1 fold increase or percent reduction vs vehicle control: 2.55 fold or %
  Rela fold increase or percent reduction vs vehicle control: 1.07 fold or %
  Rprm fold increase or percent reduction vs vehicle control: 2.09 fold or %
  Serpinb5 fold increase or percent reduction vs vehicle control: 1.90 fold or %
  Sesn2 fold increase or percent reduction vs vehicle control: 1.57 fold or %
  Sfn fold increase or percent reduction vs vehicle control: 1.00 fold or %
  Sirt1 fold increase or percent reduction vs vehicle control: 1.01 fold or %
  Stat1 fold increase or percent reduction vs vehicle control: 1.73 fold or %
  Tnf fold increase or percent reduction vs vehicle control: 1.36 fold or %
  Traf1 fold increase or percent reduction vs vehicle control: 1.38 fold or %
  Trp53bp2 fold increase or percent reduction vs vehicle control: 1.06 fold or %
  Trp53 fold increase or percent reduction vs vehicle control: 1.16 fold or %
75 mg/kg BIDx1, 72 h
  Apex1 fold increase or percent reduction vs vehicle control: 24.49 fold or %
  Atm fold increase or percent reduction vs vehicle control: 12.27 fold or %
  Atr fold increase or percent reduction vs vehicle control: 1.01 fold or %
  Bag1 fold increase or percent reduction vs vehicle control: 25.72 fold or %
  Bax fold increase or percent reduction vs vehicle control: 20.93 fold or %
  Bbc3 fold increase or percent reduction vs vehicle control: 1.08 fold or %
  Bcl2 fold increase or percent reduction vs vehicle control: 2.76 fold or %
  Bid fold increase or percent reduction vs vehicle control: 1.12 fold or %
  Birc5 fold increase or percent reduction vs vehicle control: 12.81 fold or %
  Brca1 fold increase or percent reduction vs vehicle control: 10.57 fold or %
  Brca2 fold increase or percent reduction vs vehicle control: 12.51 fold or %
  Btg2 fold increase or percent reduction vs vehicle control: 16.69 fold or %
  Casp2 fold increase or percent reduction vs vehicle control: 5.88 fold or %
  Ccnb1 fold increase or percent reduction vs vehicle control: 10.10 fold or %
  Ccne1 fold increase or percent reduction vs vehicle control: 1.09 fold or %
  Ccng1 fold increase or percent reduction vs vehicle control: 9.69 fold or %
  Ccnh fold increase or percent reduction vs vehicle control: 11.39 fold or %
  Cdc25a fold increase or percent reduction vs vehicle control: 7.34 fold or %
  Cdk1 fold increase or percent reduction vs vehicle control: 23.09 fold or %
  Cdk4 fold increase or percent reduction vs vehicle control: 22.60 fold or %
  Cdkn1a fold increase or percent reduction vs vehicle control: 1.42 fold or %
  Cdkn2a fold increase or percent reduction vs vehicle control: 39.53 fold or %
  Chek1 fold increase or percent reduction vs vehicle control: 20.93 fold or %
  Cradd fold increase or percent reduction vs vehicle control: 31.95 fold or %
  Cul9 fold increase or percent reduction vs vehicle control: 1.28 fold or %
  Dapk1 fold increase or percent reduction vs vehicle control: 1.11 fold or %
  Dnmt1 fold increase or percent reduction vs vehicle control: 1.02 fold or %
  E2f1 fold increase or percent reduction vs vehicle control: 1.14 fold or %
  E2f3 fold increase or percent reduction vs vehicle control: 15.87 fold or %
  Egfr fold increase or percent reduction vs vehicle control: 24.18 fold or %
  Egr1 fold increase or percent reduction vs vehicle control: 40.49 fold or %
  Ep300 fold increase or percent reduction vs vehicle control: 9.15 fold or %
  Ercc1 fold increase or percent reduction vs vehicle control: 29.53 fold or %
  Esr1 fold increase or percent reduction vs vehicle control: 1.39 fold or %
  Fadd fold increase or percent reduction vs vehicle control: 1.43 fold or %
  Fas fold increase or percent reduction vs vehicle control: 12.05 fold or %
  Fasl fold increase or percent reduction vs vehicle control: 1.42 fold or %
  Foxo3 fold increase or percent reduction vs vehicle control: 14.18 fold or %
  Gadd45a fold increase or percent reduction vs vehicle control: 25.11 fold or %
